Test results as given in ChEMBL document CHEMBL5550200, “Back-Pocket Optimization of 2-Aminopyrimidine-Based Macrocycles Leads to Potent EPHA2/GAK Kinase Inhibitors” (J Med Chem, 2024).

Columns and labels:
[1] = target: Vascular endothelial growth factor receptor 1 (Homo sapiens, UniProt P17948); assay: Induction of stabilization of recombinant FLT1 (unknown origin) assessed as change in melting temperature by differential scanning fluorimetry assay
[2] = target: T1, Ephrin type-B receptor 3 (Homo sapiens) (UniProt P54753); assay: Induction of stabilization of recombinant EPHB3 (unknown origin) assessed as change in melting temperature by differential scanning fluorimetry assay
T1 sequence (whole entry): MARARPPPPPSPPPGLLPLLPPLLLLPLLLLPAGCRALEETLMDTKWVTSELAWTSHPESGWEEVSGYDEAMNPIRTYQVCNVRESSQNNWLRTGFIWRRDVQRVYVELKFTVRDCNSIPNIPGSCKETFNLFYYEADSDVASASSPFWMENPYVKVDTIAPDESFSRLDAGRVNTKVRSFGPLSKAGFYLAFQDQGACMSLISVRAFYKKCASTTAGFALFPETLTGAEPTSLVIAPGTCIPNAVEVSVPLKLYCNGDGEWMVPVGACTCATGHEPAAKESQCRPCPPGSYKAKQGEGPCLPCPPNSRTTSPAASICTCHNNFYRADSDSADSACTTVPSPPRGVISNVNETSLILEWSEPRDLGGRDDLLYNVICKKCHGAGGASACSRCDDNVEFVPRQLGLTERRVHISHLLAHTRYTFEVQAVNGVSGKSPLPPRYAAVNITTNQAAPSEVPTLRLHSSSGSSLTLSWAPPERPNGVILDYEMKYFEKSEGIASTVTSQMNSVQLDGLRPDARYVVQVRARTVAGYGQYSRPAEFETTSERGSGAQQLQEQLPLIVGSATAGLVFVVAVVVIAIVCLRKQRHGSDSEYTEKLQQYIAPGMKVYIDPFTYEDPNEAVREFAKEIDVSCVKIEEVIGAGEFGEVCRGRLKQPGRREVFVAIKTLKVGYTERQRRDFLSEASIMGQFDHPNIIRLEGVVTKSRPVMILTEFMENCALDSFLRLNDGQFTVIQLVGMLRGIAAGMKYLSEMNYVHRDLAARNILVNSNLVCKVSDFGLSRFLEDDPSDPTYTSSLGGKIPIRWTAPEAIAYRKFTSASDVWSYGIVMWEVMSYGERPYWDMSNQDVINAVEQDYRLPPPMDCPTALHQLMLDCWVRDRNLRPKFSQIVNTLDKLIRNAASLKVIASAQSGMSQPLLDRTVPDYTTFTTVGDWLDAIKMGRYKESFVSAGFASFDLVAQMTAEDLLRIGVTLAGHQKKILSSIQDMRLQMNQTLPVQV

[3] = target: T2, Ephrin type-B receptor 1 (Homo sapiens) (UniProt P54762); assay: Induction of stabilization of recombinant EPHB1 (unknown origin) assessed as change in melting temperature by differential scanning fluorimetry assay
T2 sequence (whole entry): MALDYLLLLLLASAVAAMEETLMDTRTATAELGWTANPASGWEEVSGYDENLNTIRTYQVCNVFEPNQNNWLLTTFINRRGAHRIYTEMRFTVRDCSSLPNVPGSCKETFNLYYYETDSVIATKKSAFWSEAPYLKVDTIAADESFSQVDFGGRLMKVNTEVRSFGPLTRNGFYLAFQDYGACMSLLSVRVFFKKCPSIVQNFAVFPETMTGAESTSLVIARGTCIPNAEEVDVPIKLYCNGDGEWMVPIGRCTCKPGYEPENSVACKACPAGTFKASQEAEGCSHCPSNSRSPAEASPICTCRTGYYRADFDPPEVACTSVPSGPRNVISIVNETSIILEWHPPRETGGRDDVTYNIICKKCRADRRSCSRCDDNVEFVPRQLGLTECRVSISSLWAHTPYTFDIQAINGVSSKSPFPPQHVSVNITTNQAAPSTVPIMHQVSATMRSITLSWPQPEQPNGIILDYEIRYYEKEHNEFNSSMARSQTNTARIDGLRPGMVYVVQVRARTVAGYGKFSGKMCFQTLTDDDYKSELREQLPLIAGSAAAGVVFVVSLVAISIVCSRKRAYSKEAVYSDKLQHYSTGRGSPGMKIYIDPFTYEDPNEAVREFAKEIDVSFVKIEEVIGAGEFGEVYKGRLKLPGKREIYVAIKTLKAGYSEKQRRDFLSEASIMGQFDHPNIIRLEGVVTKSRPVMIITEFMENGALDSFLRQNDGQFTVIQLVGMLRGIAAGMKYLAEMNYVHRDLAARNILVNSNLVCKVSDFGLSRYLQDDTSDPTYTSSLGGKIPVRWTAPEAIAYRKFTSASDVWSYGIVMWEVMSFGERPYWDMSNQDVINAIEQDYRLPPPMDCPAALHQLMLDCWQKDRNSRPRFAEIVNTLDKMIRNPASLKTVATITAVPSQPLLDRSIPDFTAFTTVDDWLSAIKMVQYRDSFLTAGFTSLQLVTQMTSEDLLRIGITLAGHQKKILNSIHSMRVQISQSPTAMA

[4] = target: T3, Cyclin-G-associated kinase (Homo sapiens) (UniProt O14976)
T3 sequence (whole entry): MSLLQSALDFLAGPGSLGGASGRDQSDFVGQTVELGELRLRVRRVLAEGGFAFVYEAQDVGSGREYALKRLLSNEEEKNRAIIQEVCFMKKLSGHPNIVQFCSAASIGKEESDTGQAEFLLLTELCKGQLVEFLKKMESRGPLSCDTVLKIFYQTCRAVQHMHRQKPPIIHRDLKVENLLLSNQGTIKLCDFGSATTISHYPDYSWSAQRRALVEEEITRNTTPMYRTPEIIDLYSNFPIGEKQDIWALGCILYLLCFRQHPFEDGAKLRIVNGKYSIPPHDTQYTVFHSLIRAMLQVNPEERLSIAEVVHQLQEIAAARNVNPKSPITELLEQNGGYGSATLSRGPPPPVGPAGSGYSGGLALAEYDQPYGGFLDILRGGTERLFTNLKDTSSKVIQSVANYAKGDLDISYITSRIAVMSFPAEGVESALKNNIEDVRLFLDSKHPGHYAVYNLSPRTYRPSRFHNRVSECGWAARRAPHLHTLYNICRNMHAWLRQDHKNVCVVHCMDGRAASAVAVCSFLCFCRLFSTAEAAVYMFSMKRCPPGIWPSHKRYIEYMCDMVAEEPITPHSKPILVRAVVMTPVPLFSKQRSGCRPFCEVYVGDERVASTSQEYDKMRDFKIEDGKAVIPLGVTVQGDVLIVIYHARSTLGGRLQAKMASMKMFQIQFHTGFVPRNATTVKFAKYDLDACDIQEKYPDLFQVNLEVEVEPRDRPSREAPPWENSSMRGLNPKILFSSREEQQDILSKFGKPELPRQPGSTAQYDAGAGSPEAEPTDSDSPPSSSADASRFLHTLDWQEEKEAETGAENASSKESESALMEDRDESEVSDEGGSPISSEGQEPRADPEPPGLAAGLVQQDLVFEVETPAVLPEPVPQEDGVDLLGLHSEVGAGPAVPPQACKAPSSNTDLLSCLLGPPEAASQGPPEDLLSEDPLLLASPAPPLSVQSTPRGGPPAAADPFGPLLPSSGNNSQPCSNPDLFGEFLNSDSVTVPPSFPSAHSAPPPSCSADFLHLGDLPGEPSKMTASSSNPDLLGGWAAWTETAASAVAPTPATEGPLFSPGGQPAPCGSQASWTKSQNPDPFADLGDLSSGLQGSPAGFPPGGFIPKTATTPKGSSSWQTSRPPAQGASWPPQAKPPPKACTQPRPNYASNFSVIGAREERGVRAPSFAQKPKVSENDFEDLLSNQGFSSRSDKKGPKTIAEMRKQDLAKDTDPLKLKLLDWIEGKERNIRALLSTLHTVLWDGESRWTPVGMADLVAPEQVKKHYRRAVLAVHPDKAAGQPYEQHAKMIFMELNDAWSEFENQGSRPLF
Description: Induction of stabilization of recombinant GAK (unknown origin) assessed as change in melting temperature by differential scanning fluorimetry assay

[5] = target: Ephrin type-A receptor 5 (Homo sapiens) (UniProt P54756)
Description: Induction of stabilization of recombinant EPHA5 (unknown origin) assessed as change in melting temperature by differential scanning fluorimetry assay

[6] = target: Fibroblast growth factor receptor 1 (Homo sapiens, UniProt P11362)
Description: Induction of stabilization of recombinant FGFR1 (unknown origin) assessed as change in melting temperature by differential scanning fluorimetry assay

[7] = target: Fibroblast growth factor receptor 2 (Homo sapiens) (UniProt P21802)
Description: Induction of stabilization of recombinant FGFR2 (unknown origin) assessed as change in melting temperature by differential scanning fluorimetry assay

Ephrin type-A receptor 4 = Ephrin type-A receptor 4 (Homo sapiens, UniProt P54764); assay: Induction of stabilization of recombinant EPHA4 (unknown origin) assessed as change in melting temperature by differential scanning fluorimetry assay
[8] = target: Ephrin type-A receptor 7 (Homo sapiens) (UniProt Q15375); assay: Induction of stabilization of recombinant EPHA7 (unknown origin) assessed as change in melting temperature by differential scanning fluorimetry assay
Ephrin type-A receptor 2 = Ephrin type-A receptor 2 (Homo sapiens, UniProt P29317)
Ephrin type-A receptor 2, sequence (P29317 whole entry): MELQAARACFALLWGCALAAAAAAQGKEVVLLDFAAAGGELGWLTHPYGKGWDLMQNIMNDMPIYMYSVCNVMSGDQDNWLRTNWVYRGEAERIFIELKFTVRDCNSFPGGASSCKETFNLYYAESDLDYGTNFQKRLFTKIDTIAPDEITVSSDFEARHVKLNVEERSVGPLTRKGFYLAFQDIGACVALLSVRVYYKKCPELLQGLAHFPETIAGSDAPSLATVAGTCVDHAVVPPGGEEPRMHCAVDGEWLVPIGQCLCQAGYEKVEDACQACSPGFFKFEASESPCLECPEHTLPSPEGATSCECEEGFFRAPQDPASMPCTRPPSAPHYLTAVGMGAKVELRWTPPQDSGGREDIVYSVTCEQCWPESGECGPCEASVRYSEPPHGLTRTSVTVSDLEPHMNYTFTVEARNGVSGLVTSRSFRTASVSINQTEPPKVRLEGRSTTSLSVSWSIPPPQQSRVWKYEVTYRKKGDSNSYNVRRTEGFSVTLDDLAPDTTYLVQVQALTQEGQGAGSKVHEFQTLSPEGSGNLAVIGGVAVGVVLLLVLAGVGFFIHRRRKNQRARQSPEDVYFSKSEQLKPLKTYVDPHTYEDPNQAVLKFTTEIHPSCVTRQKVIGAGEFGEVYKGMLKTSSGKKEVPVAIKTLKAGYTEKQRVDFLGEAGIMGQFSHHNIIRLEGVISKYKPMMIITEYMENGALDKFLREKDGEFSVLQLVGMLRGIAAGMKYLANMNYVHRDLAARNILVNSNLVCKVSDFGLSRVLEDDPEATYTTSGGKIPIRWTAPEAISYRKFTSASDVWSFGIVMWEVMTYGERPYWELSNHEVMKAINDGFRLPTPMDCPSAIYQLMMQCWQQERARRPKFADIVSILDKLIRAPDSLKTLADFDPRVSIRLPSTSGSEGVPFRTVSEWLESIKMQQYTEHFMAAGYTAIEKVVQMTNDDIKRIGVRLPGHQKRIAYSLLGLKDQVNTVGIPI
Description: Induction of stabilization of recombinant EPHA2 (D596 to G900 residues) (unknown origin) expressed in Escherichia coli rosetta BL21(D3)-R3-pRARE2 competent cells assessed as change in melting temperature by differential scanning fluorimetry assay

Ephrin type-A receptor 4, sequence (P54764 whole entry): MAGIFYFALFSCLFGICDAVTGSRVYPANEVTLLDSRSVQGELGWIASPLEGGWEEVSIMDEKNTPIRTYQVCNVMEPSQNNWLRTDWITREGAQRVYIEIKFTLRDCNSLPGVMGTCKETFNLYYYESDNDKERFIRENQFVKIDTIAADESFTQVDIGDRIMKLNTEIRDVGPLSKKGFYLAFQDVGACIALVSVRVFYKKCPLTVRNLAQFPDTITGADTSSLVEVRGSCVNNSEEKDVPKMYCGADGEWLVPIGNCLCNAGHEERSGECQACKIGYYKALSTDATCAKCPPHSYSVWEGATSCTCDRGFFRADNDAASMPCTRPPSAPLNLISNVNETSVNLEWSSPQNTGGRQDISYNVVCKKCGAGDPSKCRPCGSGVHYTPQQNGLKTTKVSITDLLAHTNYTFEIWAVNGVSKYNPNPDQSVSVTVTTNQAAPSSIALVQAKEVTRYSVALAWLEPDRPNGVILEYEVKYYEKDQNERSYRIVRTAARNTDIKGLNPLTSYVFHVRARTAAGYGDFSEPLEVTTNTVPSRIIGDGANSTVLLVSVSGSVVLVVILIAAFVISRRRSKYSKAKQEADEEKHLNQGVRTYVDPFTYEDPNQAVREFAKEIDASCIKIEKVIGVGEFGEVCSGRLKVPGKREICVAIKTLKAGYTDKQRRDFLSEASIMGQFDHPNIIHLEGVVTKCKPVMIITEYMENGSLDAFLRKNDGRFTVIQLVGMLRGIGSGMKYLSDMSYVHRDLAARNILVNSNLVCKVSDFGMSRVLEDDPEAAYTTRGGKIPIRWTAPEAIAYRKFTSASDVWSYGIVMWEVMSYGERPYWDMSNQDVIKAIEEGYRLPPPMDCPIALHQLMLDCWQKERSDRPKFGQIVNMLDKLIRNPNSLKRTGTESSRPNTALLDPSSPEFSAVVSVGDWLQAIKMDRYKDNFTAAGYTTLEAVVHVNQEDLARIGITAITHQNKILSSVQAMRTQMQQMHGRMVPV
Fibroblast growth factor receptor 2 (Homo sapiens), sequence (P21802 22-821 limits assumed): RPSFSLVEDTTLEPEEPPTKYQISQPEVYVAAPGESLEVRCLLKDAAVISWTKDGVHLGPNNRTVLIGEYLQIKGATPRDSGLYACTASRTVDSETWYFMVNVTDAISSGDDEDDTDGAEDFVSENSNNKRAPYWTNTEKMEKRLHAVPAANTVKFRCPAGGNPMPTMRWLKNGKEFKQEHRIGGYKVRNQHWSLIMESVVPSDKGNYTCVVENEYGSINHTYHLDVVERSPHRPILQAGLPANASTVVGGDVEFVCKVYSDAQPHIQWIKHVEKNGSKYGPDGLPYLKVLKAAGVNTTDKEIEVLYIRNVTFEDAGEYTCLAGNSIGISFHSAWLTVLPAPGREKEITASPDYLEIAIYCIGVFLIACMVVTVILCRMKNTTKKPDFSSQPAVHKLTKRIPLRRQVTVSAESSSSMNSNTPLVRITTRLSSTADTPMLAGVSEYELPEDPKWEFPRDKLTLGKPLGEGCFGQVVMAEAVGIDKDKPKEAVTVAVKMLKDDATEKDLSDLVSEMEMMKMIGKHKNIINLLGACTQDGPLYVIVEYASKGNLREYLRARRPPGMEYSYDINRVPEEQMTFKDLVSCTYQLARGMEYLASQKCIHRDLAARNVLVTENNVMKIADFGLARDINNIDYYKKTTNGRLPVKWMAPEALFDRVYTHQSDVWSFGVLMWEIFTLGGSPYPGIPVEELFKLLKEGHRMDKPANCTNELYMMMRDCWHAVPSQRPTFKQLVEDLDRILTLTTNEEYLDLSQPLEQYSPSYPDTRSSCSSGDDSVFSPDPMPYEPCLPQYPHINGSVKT
Fibroblast growth factor receptor 1, sequence (P11362 22-822 limits assumed): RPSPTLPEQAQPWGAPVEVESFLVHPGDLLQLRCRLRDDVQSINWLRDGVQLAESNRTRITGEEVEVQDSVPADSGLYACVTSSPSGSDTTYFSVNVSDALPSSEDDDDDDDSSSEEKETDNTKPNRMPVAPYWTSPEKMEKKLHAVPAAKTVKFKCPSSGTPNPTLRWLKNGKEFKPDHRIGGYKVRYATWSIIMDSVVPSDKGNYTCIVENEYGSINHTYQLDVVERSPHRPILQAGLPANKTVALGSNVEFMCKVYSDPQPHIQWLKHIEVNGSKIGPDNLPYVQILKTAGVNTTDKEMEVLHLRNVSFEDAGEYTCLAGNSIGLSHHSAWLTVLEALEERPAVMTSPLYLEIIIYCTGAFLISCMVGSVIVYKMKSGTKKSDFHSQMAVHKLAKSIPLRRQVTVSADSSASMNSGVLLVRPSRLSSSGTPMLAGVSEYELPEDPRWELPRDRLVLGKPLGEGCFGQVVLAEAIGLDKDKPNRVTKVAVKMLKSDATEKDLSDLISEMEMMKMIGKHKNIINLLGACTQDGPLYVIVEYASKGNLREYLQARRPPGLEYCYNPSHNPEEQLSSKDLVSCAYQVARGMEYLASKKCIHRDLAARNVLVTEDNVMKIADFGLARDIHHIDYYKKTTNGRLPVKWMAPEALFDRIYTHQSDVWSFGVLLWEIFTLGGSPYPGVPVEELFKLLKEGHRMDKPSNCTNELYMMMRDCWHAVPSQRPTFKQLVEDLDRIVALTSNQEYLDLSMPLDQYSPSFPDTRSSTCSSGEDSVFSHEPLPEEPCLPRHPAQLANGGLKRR
Vascular endothelial growth factor receptor 1, sequence (P17948 whole entry): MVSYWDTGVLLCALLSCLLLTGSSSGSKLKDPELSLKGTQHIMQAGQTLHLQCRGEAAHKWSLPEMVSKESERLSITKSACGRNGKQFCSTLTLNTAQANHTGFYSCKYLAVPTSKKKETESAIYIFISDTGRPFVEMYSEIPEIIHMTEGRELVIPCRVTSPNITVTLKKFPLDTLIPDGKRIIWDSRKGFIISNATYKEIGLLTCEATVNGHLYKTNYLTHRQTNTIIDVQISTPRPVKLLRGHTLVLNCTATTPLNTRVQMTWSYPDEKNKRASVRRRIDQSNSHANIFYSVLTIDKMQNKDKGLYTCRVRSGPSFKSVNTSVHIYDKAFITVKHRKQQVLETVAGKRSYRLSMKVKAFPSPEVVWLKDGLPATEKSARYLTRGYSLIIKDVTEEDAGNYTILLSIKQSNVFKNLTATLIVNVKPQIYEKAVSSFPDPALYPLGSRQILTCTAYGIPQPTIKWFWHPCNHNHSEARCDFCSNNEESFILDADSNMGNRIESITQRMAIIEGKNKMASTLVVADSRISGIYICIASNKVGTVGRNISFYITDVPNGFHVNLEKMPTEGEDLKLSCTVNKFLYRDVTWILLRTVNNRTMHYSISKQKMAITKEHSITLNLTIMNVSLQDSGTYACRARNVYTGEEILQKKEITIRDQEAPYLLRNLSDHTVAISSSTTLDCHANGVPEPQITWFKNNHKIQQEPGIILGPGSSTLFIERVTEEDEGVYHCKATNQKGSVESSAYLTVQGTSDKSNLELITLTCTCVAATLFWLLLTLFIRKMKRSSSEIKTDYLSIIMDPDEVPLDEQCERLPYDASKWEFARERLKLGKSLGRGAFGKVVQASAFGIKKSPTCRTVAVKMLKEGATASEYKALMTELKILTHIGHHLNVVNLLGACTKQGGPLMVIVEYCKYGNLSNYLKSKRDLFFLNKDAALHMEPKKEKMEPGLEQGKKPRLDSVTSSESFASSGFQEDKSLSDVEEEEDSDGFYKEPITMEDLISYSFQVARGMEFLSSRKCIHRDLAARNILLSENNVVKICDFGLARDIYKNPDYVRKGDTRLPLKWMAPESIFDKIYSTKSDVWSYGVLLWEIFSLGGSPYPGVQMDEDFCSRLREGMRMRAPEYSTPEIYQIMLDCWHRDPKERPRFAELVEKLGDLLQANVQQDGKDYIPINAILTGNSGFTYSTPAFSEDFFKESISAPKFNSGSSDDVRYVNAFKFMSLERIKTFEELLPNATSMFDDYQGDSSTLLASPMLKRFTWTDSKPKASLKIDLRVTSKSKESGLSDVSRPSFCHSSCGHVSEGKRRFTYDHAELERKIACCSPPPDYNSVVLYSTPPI

| SMILES | deltaTm [1] [K] | deltaTm [2] [K] | deltaTm [3] [K] | deltaTm [4] [K] | deltaTm [5] [K] | deltaTm [6] [K] | deltaTm [7] [K] | deltaTm (Ephrin type-A receptor 4) [K] | deltaTm [8] [K] | deltaTm (Ephrin type-A receptor 2) [K] |
| --- | --- | --- | --- | --- | --- | --- | --- | --- | --- | --- |
| COC(=O)COc1ccc2cc1S(=O)(=O)NCCCNc1nc(ncc1-c1ccc(F)c(OC)c1)N2 | 0.3 | 1.4 | 1 | 3.7 | 2.3 | 0.5 | 1.3 | 1.6 | 0.4 | 2.4 |
| COc1cc(-c2cnc3nc2NCCCNS(=O)(=O)c2cc(ccc2-c2ccc(O)cc2)N3)ccc1F | 3.6 | 6 | 4.3 | 3.6 | 6.7 | 3.1 | 4 | 5.3 | 2.9 | 9.8 |
| COc1cc(-c2cnc3nc2NCCCNS(=O)(=O)c2cccc(c2)N3)cc(OC)c1OC | 0.7 | 2.4 | 2.2 | 5.9 | 2.9 | 0.8 | 1.2 | 2.2 | -0.3 | 6 |
| COC(=O)c1ccc(-c2cnc3nc2NCCCNS(=O)(=O)c2cccc(c2)N3)cc1OC | 2.6 | 1.3 | 1.1 | 3.1 | 1.8 | 0.6 | 1.8 | 1.3 | 0.1 | 2.9 |
| Cc1cc(Cl)c(Cl)cc1-c1cnc2nc1NCCCNS(=O)(=O)c1cccc(c1)N2 | 2.7 | 0 | 3.2 | 4.9 | 3.5 | 2.4 | 3.6 | 2.6 | 0.5 | 6.2 |
| O=S1(=O)NCCCNc2nc(ncc2-c2ccc(F)c(Cl)c2)Nc2cccc1c2 | 7.5 | 4.3 | 5.3 | 6.3 | 5.7 | 3.8 | 5.5 | 4.6 | -1.5 | 9.2 |
| COC(=O)c1cc(-c2cnc3nc2NCCCNS(=O)(=O)c2cccc(c2)N3)ccc1F | 6.4 | 1.5 | 1.3 | -1.3 | -0.7 | 3.5 | 3.1 | -0.6 | -2.8 | 2.1 |
| O=S1(=O)NCCCNc2nc(ncc2-c2ccc(F)c(C(F)(F)F)c2)Nc2cccc1c2 | 1.8 | 0.6 | 0.6 | 3.1 | 1.6 | 1.3 | 2.1 | 0.7 | 0.9 | 3 |
| COc1cc(-c2cnc3nc2NCCCNS(=O)(=O)c2cc(ccc2C)N3)ccc1F | -1.3 | 6.1 | 4.2 | 6.4 | 5.5 | 2.7 | 3 | 3.6 | 2 | 7.6 |
| O=S1(=O)NCCCNc2nc(ncc2-c2ccc(F)c(O)c2)Nc2cccc1c2 | 10.7 | 3 | 4 | 6.4 | 4.1 | 4.9 | 6.5 | 2.9 | -2 | 7.8 |
| O=S1(=O)NCCCNc2nc(ncc2-c2cccc(Cl)c2F)Nc2cccc1c2 | 6 | 3.7 | 3.1 | 5.3 | 4.6 | 4 | 5.3 | 3.4 | 1.8 | 7 |
| COc1ccc(-c2cnc3nc2NCCCNS(=O)(=O)c2cccc(c2)N3)cc1OC | 4.1 | 1.4 | 0.6 | 6.1 | 2.1 | 2.3 | 3.3 | 1.4 | 0.8 | 4.6 |
| COc1cc(-c2cnc3nc2NCCCNS(=O)(=O)c2cc(ccc2Cl)N3)ccc1F | 2.4 | 1.6 | 2.5 | 8.1 | 5 | 1.9 | 3.6 | 5.1 | 1.6 | 6.3 |
